The values below come from US11987586B1 (TAKEDA PHARMACEUTICAL COMPANY LIMITED, priority 2022, dated 2024).

The target in this test is T1, human OX2 receptor (Homo sapiens, UniProt O43614).
T1 construct: expressed in transfected cells
T1 sequence (O43614 1-444): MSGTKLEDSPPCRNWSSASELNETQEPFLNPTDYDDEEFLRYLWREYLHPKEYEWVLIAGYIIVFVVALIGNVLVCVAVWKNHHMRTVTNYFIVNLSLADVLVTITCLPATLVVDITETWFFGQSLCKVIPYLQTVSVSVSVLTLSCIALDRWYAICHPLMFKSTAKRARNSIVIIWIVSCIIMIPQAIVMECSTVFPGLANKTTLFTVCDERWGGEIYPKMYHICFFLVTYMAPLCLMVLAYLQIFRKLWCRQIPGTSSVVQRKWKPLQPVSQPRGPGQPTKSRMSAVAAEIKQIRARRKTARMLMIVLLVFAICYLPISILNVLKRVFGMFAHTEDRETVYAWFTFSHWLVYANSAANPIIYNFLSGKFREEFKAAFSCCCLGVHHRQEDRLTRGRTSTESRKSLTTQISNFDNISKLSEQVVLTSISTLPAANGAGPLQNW
The experiment in a line: Measurement of orexin type 2 receptor agonist activity (calcium fluorescence, Fluo-4, FDSS). In kind it is cell-based. As to conditions: 3 uM test compound; CHO cells expressing human OX2 receptor; DMSO = 0%, 10 nM orexin A (human) = 100%. Here is the method:
In order to obtain cell clones that stably express human orexin type 2 receptor, human orexin type 2 (residues 1-444, NCBI Reference Sequence: AK314279) was constructed in a pcDNA3.1 (+) vector (Invitrogen) to express in mammalian cells. This plasmid DNA was transfected into CHO-K1 cells by electroporation, and stable clones were obtained by limiting dilution using resistance to G418 as a selection marker.
CHO cells in which human OX2 receptor was forcibly expressed were seeded at 10,000 cells/well into a 384-well black transparent bottom plate (BD falcon), and were incubated at 37° C., 5% CO2 for 1 day after incubation at room temperature for 30 minutes. After removing the cell plate medium, assay buffer containing calcium indicator A (HBSS (Thermo Fisher Scientific), 20 mM HEPES (Thermo Fisher Scientific), 0.1% BSA (Sigma-Aldrich), 2.5 μg/mL Fluo-4 AM (Dojin Kagaku), 0.08% Pluronic F127 (Dojin Kagaku), 1.25 mM probenecid (Dojin Kagaku)) was added at 30 μL/well. After incubation in a 5% CO2 incubator at 37° C. for 30 minutes, it was incubated at room temperature for another 30 minutes. Add 10 μL/well of the test compound diluted with assay buffer B (HBSS, 20 mM HEPES, 0.1% BSA), and use FDSS μCELL (Hamamatsu Photonics) to measure the fluorescence value every 1 second for 1 minute, and then every 2 seconds for 1 minute. It was measured for 1 minute and 40 seconds. The amount of fluorescence value when DMSO is added instead of the test compound is defined as 0%, and the amount of fluorescence value when orexin A (human) (Peptide Institute) with a final concentration of 10 nM is added is defined as 100%. The activity (%) of the test compound was calculated.

For `CCS(=O)(=O)N[C@@H]1CN2C(=O)N(c3noc4cccc(-c5c(F)cccc5F)c34)C[C@@H]2[C@@H]1F` (relative stereo) [Example 4, rel-N-{(6R,7S,7aR)-2-[4-(2,6-difluorophenyl)-1,2-benzoxazol-3-yl]-7-fluoro-3-oxohexahydro-1H-pyrrolo[1,2-c]imidazol-6-yl}ethanesulfonamide], the “OX2R agonist activity (3 uM, %)” value amounted to 105%.

On to `CS(=O)(=O)N[C@@H]1CC[C@H]2CN(c3noc4cccc(-c5c(F)cccc5F)c34)C(=O)N2C1` (relative stereo) [Example 63, rel-N-{(6R, 8aS)-2-[4-(2,6-difluorophenyl)-1,2-benzoxazol-3-yl]-3-oxooctahydroimidazo[1,5-a]pyridin-6-yl}methanesulfonamide], for which the “OX2R agonist activity (3 uM, %)” value worked out at 107%.

As for `CCS(=O)(=O)N[C@H]1Cn2c(cn(-c3noc4cccc(-c5c(F)cccc5F)c34)c2=O)[C@H]1C` (relative stereo) [Example 109, rel-N-{(6R,7S)-2-[4-(2,6-difluorophenyl)-1,2-benzoxazol-3-yl]-7-methyl-3-oxo-2,5,6,7-tetrahydro-3H-pyrrolo[1,2-c]imidazol-6-yl}ethanesulfonamide], the “OX2R agonist activity (3 uM, %)” value was found to be 103%.

Regarding `CS(=O)(=O)N[C@@H]1CN2C(=O)N(c3noc4cccc(-c5c(F)cc(F)cc5F)c34)C(O)[C@@H]2C1(F)F` (relative stereo) [Example 125, N-{(1R*,6R,7aR)-7,7-difluoro-1-hydroxy-3-oxo-2-[4-(2,4,6-trifluorophenyl)-1,2-benzoxazol-3-yl]hexahydro-1H-pyrrolo[1,2-c]imidazol-6-yl}methanesulfonamide], the “OX2R agonist activity (3 uM, %)” value amounted to 103%.

For `CCS(=O)(=O)N[C@@H]1Cn2c(cn(-c3noc4cccc(-c5c(F)cccc5F)c34)c2=O)[C@@H]1F` (relative stereo) [Example 129, rel-N-{(6R, 7R)-2-[4-(2,6-difluorophenyl)-1,2-benzoxazol-3-yl]-7-fluoro-3-oxo-2,5,6,7-tetrahydro-3H-pyrrolo[1,2-c]imidazol-6-yl}ethanesulfonamide], the “OX2R agonist activity (3 uM, %)” value is on record as 103%.

Regarding `CCS(=O)(=O)N[C@H]1Cn2c(cn(-c3noc4cccc(-c5c(F)cccc5F)c34)c2=O)[C@@H]1C` (relative stereo) [Example 131, rel-N-{(6R, 7R)-2-[4-(2,6-difluorophenyl)-1,2-benzoxazol-3-yl]-7-methyl-3-oxo-2,5,6,7-tetrahydro-3H-pyrrolo[1,2-c]imidazol-6-yl}ethanesulfonamide], the “OX2R agonist activity (3 uM, %)” value is 96%.

Consider `CS(=O)(=O)N[C@@H]1CN2C(=O)N(c3noc4cccc(-c5c(F)cccc5F)c34)C[C@H]2CC1(F)F` (relative stereo) [Example 216, rel-N-{(6R,8aR)-2-[4-(2,6-difluorophenyl)-1,2-benzoxazol-3-yl]-7,7-difluoro-3-oxooctahydroimidazo[1,5-a]pyridin-6-yl}methanesulfonamide], for which the “OX2R agonist activity (3 uM, %)” value was determined as 101%.

Take `CS(=O)(=O)N[C@@H]1C[C@H]2CN(c3noc4cccc(-c5c(F)cccc5F)c34)C(=O)[C@H]2C1` (relative stereo) [Example 337, rel-N-{(3aR,5R,6aS)-2-[4-(2,6-difluorophenyl)-1,2-benzoxazol-3-yl]-1-oxooctahydrocyclopenta[c]pyrrol-5-yl}methanesulfonamide]: the “OX2R agonist activity (3 uM, %)” value is 79%.

Take `CS(=O)(=O)N[C@H]1C[C@H]2CN(c3noc4cccc(-c5c(F)cccc5F)c34)C(=O)[C@H]2C1` (relative stereo) [Example 338, rel-N-{(3aR,5S,6aS)-2-[4-(2,6-difluorophenyl)-1,2-benzoxazol-3-yl]-1-oxooctahydrocyclopenta[c]pyrrol-5-yl}methanesulfonamide]: the “OX2R agonist activity (3 uM, %)” value stood at 100%.

Turning to `CCS(=O)(=O)NC1Cn2c(cn(-c3noc4cccc(-c5c(F)cccc5F)c34)c2=O)C1(F)F` (single isomer, unassigned) [Example 5, N-{(6R*)-2-[4-(2,6-difluorophenyl)-1,2-benzoxazol-3-yl]-7,7-difluoro-3-oxo-2,5,6,7-tetrahydro-3H-pyrrolo[1,2-c]imidazol-6-yl}ethanesulfonamide], the “OX2R agonist activity (3 uM, %)” value turned out to be 106%.

In the case of `CS(=O)(=O)NC1Cn2c(cn(-c3noc4cccc(-c5c(F)cccc5F)c34)c2=O)CC1(F)F` (single isomer, unassigned) [Example 117, N-{(6R*)-2-[4-(2,6-difluorophenyl)-1,2-benzoxazol-3-yl]-7,7-difluoro-3-oxo-2,3,5,6,7,8-hexahydroimidazo[1,5-a]pyridin-6-yl}methanesulfonamide], the “OX2R agonist activity (3 uM, %)” value came to 97%.

As to `CCS(=O)(=O)NC1Cn2c(cn(-c3noc4cccc(-c5c(F)cccc5F)c34)c2=O)CC1(F)F` (single isomer, unassigned) [Example 181, N-{(6R*)-2-[4-(2,6-difluorophenyl)-1,2-benzoxazol-3-yl]-7,7-difluoro-3-oxo-2,3,5,6,7,8-hexahydroimidazo[1,5-a]pyridin-6-yl}ethanesulfonamide], the “OX2R agonist activity (3 uM, %)” value is on record as 105%.

For the molecule `CS(=O)(=O)NC1Cn2c(cn(-c3noc4cc(F)cc(-c5c(F)cc(F)cc5F)c34)c2=O)CC1(F)F` (single isomer, unassigned) [Example 214, N-{(6R*)-7,7-difluoro-2-[6-fluoro-4-(2,4,6-trifluorophenyl)-1,2-benzoxazol-3-yl]-3-oxo-2,3,5,6,7,8-hexahydroimidazo[1,5-a]pyridin-6-yl}methanesulfonamide], the “OX2R agonist activity (3 uM, %)” value worked out at 106%.

Turning to `CS(=O)(=O)NC1Cn2c(cn(-c3noc4ccc(F)c(-c5c(F)cc(F)cc5F)c34)c2=O)CC1(F)F` (single isomer, unassigned) [Example 231, N-{(6R*)-7,7-difluoro-2-[5-fluoro-4-(2,4,6-trifluorophenyl)-1,2-benzoxazol-3-yl]-3-oxo-2,3,5,6,7,8-hexahydroimidazo[1,5-a]pyridin-6-yl}methanesulfonamide], the “OX2R agonist activity (3 uM, %)” value is on record as 103%.

For `CCS(=O)(=O)NC1Cn2c(cn(-c3noc4cc(F)cc(-c5c(F)cc(F)cc5F)c34)c2=O)CC1(F)F` (single isomer, unassigned) [Example 240, N-{(6R*)-7,7-difluoro-2-[6-fluoro-4-(2,4,6-trifluorophenyl)-1,2-benzoxazol-3-yl]-3-oxo-2,3,5,6,7,8-hexahydroimidazo[1,5-a]pyridin-6-yl}ethanesulfonamide], the “OX2R agonist activity (3 uM, %)” value was determined as 106%.

For the molecule `Cc1cc(-c2c(F)cc(F)cc2F)c2c(-n3cc4n(c3=O)CC(NS(C)(=O)=O)C(F)(F)C4)noc2n1` (single isomer, unassigned) [Example 245, N-{(6R*)-7,7-difluoro-2-[6-methyl-4-(2,4,6-trifluorophenyl)[1,2]oxazolo[5,4-b]pyridin-3-yl]-3-oxo-2,3,5,6,7,8-hexahydroimidazo[1,5-a]pyridin-6-yl}methanesulfonamide], the “OX2R agonist activity (3 uM, %)” value was found to be 108%.

As to `CCS(=O)(=O)NC1Cn2c(cn(-c3noc4ccc(F)c(-c5c(F)cc(F)cc5F)c34)c2=O)CC1(F)F` (single isomer, unassigned) [Example 246, N-{(6R*)-7,7-difluoro-2-[5-fluoro-4-(2,4,6-trifluorophenyl)-1,2-benzoxazol-3-yl]-3-oxo-2,3,5,6,7,8-hexahydroimidazo[1,5-a]pyridin-6-yl}ethanesulfonamide], the “OX2R agonist activity (3 uM, %)” value amounted to 107%.

Take `Cc1cc2onc(-n3cc4n(c3=O)CC(NS(C)(=O)=O)C(F)(F)C4)c2c(-c2c(F)cc(F)cc2F)n1` (single isomer, unassigned) [Example 289, N-{(6R*)-7,7-difluoro-2-[6-methyl-4-(2,4,6-trifluorophenyl)[1,2]oxazolo[4,5-c]pyridin-3-yl]-3-oxo-2,3,5,6,7,8-hexahydroimidazo[1,5-a]pyridin-6-yl}methanesulfonamide]: the “OX2R agonist activity (3 uM, %)” value amounted to 97%.

On to `CCS(=O)(=O)NC1Cn2c(C)c(-c3noc4cccc(-c5c(F)cccc5F)c34)c(=O)n2C1` (single isomer, unassigned) [Example 336, N-{(2R*)-6-[4-(2,6-difluorophenyl)-1,2-benzoxazol-3-yl]-7-methyl-5-oxo-2,3-dihydro-1H,5H-pyrazolo[1,2-a]pyrazol-2-yl}ethanesulfonamide], for which the “OX2R agonist activity (3 uM, %)” value is 98%.
